Data: patent US5412098A, “Quinolone derivative or salt thereof and antibacterial containing the same” (Wakunaga Seiyaku Kabushiki Kaisha, priority 1991, dated 1995)
In brackets after ≈: the same amount, converted by molar mass.

Legend:
[1] = system: E. Coli NIH JC-2 (IFO 12734); experiment: Minimum inhibitory concentration, standard method of Japan Society of Chemotherapy, E. Coli NIH JC-2; format: cell-based; conditions: Escherichia coli, IFO12734
Experimental: (§1) Antibacterial activity, absorption and excretion of the compounds indicated in Examples were tested as follows.
(§2) The minimum inhibitory concentration (MIC: microgram/ml) is measured by the standard method of Japan Society of Chemotherapy, (Chemotherapy, Volume 29, No.1, pp.76-79, 1981). The results are shown in Table 52 in which compound numbers are the same as those indicated in Examples.

[2] = system: S. aureus 209P (IFO 12732); experiment: Minimum inhibitory concentration, standard method of Japan Society of Chemotherapy, S. aureus 209P; format: cell-based; conditions: Staphylococcus aureus
Experimental: as §1, §2

[3] = system: P. aeruginosa (IFO 3445); experiment: Minimum inhibitory concentration, standard method of Japan Society of Chemotherapy, P. aeruginosa; format: cell-based; conditions: Pseudomonas aeruginosa, IFO3445
Experimental: as §1, §2

[4] = Recovery in urine after oral administration (disk method, Bacillus subtilis ATCC 6633); format: in vivo, male JCL-SD rats; conditions: rat, 20 mg/kg, rats, 20 mg/10 ml/kg in 0.5% methylcellulose, fasted overnight, read-out: Excretion Rate, In Urine
Experimental: (§3) The absorption and excretion after oral administration of the compounds of the present invention were tested by measuring the recovery in urine and bile as follows.
To a group of three male JCL-SD rats (6 weeks old) fasted overnight, a subject compound was orally administered as prepared to be 20 mg/10 ml/kg with 0.5% of methylcellulose solution. The sampling was carried out by collecting urine in 0 to 6 hours and 6 to 24 hours. The concentration of the subject compound in the urine was examined by a disk method by using Bacillus subtilis ATCC 6633 as a testing bacillus to obtain an excretion rate in urine for 24 hours.

[5] = Recovery in bile after oral administration (disk method, Bacillus subtilis ATCC 6633); format: in vivo; conditions: rat, 20 mg/kg, rats, prepared as in urine test (20 mg/10 ml/kg), read-out: Excretion Rate, In Bile
Experimental: as §3
A subject compound was prepared in the same manner as the recovery test in urine and was orally administered to the rats. The bile was collected by using a polyethylene tube inserted into the choledochus over 24 hours. The concentration of the subject compound in the bile sample was examined in the same manner as the recovery in urine to obtain an excretion rate in bile for 24 hours.

## C[C@@H]1CN(c2nc3c(cc2F)c(=O)c(C(=O)O)cn3-c2cnsn2)C[C@@H]1N (single isomer, unassigned) [Compound 19]
[1]
  MIC: < 0.013 µg/mL
[2]
  MIC: 0.1 µg/mL (≈ 0.256 µM)
[3]
  MIC: 0.39 µg/mL (≈ 0.999 µM)
[4]
  dose excreted at 24 h: 80.6%
[5]
  dose excreted at 24 h: 4.4%

## Cl.N[C@H]1CCN(c2nc3c(cc2F)c(=O)c(C(=O)O)cn3-c2cnsn2)C1 [Compound 18, 7-(3-(S)-Aminopyrrolidin-1-yl)-6-fluoro-1-(1,2,5-thiadiazol-3-yl)-1,4-dihydro-4-oxo-1,8-naphthyridine-3-carboxylic acid hydrochloride]
[1]
  MIC: < 0.013 µg/mL
[2]
  MIC: 0.2 µg/mL
[3]
  MIC: 0.1 µg/mL
[4]
  dose excreted at 24 h: 20%
[5]
  dose excreted at 24 h: 2%

## N[C@H]1CCN(c2nc3c(cc2F)c(=O)c(C(=O)O)cn3-c2csnn2)C1 [Compound 58]
[1]
  MIC: 0.05 µg/mL (≈ 0.133 µM)
[2]
  MIC: 1.56 µg/mL (≈ 4.14 µM)
[3]
  MIC: 0.39 µg/mL (≈ 1.04 µM)

## Cc1nonc1-n1cc(C(=O)O)c(=O)c2cc(F)c(N3CC[C@H](N)C3)nc21 [Compound 81]
[1]
  MIC: 0.05 µg/mL (≈ 0.134 µM)
[2]
  MIC: 0.1 µg/mL (≈ 0.267 µM)
[3]
  MIC: 0.2 µg/mL (≈ 0.534 µM)

## N[C@H]1CCN(c2c(F)cc3c(=O)c(C(=O)O)cn(Cc4cnsn4)c3c2F)C1 [Compound 126]
[1]
  MIC: 3.13 µg/mL (≈ 7.68 µM)
[2]
  MIC: 0.39 µg/mL (≈ 0.957 µM)
[3]
  MIC: 3.13 µg/mL (≈ 7.68 µM)

## Cc1c(F)c(N2CC[C@H](N)C2)cc2c1c(=O)c(C(=O)O)cn2-c1cnsn1 [Compound 162]
[1]
  MIC: 0.013 µg/mL (≈ 0.0334 µM)
[2]
  MIC: 0.1 µg/mL (≈ 0.257 µM)
[3]
  MIC: 0.2 µg/mL (≈ 0.514 µM)

## Cc1nsnc1-n1cc(C(=O)O)c(=O)c2cc(F)c(N3CC[C@H](N)C3)nc21.Cl [Compound 187, 7-(3-(S)-Aminopyrrolidin-1-yl)-6-fluoro-1-(4-methyl-1,2,5-thiadiazol-3-yl)-1,4-dihydro-4-oxo-1,8-naphthyridine-3-carboxylic acid hydrochloride]
[1]
  MIC: 0.05 µg/mL
[2]
  MIC: 0.2 µg/mL
[3]
  MIC: 0.39 µg/mL
